The nature of series [1]: physchem. The following applies: octanol/water.
Series [2] in a line: in vitro. The following applies: PAMPA. (In general: PAMPA measures passive passage across an artificial lipid membrane.)

As usually defined, the logD is the decadic logarithm of the distribution of all forms, ionised or not, between an organic phase and buffer at a given pH. The low end stands for lower lipophilicity, the high end for higher lipophilicity. In turn, `NC(=O)CN(NC(=O)[C@@H]1CCCN1C(=O)C1(c2ccc(OC(F)(F)F)cc2)CC1)C(=O)CCl` yielded a logD in series [1] of 1.9.

In general, Papp refers to the rate of passage across a membrane or cell layer, normalised by area and donor concentration. `N#C[C@H](CC(N)=O)NC(=O)[C@@H]1CCCN1C(=O)Cc1ccccc1` gave a Papp in series [2] of 2.7 ×10⁻⁶ cm/s.

`C#C[C@H](CC(N)=O)NC(=O)[C@@H]1C[C@H](C)CN1C(=O)C1(c2ccc(OC(F)(F)F)cc2)CC1` yielded a log distribution coefficient (logD) in series [1] of 2.3. In series [2], this compound came in with a Papp of 1.5 ×10⁻⁶ cm/s.

In the case of `C#C[C@H](CC(N)=O)NC(=O)[C@@H]1CCCN1C(=O)[C@]1(c2ccc(OC(F)(F)F)cc2)C[C@@H](F)C1`, the logD in series [1] was determined as 2.1.

In the case of `C#C[C@H](CC(N)=O)NC(=O)[C@@H]1C[C@@H](C)CN1C(=O)C1(c2ccc(OC(F)(F)F)cc2)CC1`, in series [1], the logD is 2.2. For the same compound, the Papp in series [2] came out at 2.8 ×10⁻⁶ cm/s.

Consider `N#C[C@H](CC(N)=O)NC(=O)[C@@H]1CCCN1C(=O)C1(c2ccc(F)cc2)CC1`, for which the logD in series [1] was determined as 0.5. The compound further displayed a Papp in series [2] of 2.9 ×10⁻⁶ cm/s.

For the compound `C#C[C@H](CC(N)=O)NC(=O)[C@@H]1CCCN1C(=O)[C@]1(c2ccc(OC(F)(F)F)cc2)C[C@H](F)C1`, the logD in series [1] is 1.7.

Source of the values: ChEMBL document CHEMBL5375996, “Discovery of Orally Available and Brain Penetrant AEP Inhibitors” (J Med Chem, 2023).
